Laboratory results published in US20250282799A1, “SUBSTITUTED PYRIDO[4,3-d]PYRIMIDINES AS KRAS MODULATORS” (Alterome Therapeutics, Inc., priority 2023, published 2025).

The compounds below were run on KRAS G12V dependent lung adenocarcinoma cell line, NCI-H441 (assay: Cellular pERK (Thr202/Tyr204) FRET/HTRF assay). Conditions: Homo sapiens, NCI-H441, cellular pERK (Thr202/Tyr204) HTRF, NCI-H441 cells.
Type: cell-based
Outline: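 IC50 reflects inhibition of ERK1/2 Thr202/Tyr204 phosphorylation, quantified by HTRF after a 1 hr treatment of KRAS G12V-driven NCI-H441 cells. DMSO served as negative control.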

| Structure (SMILES) | IC50 [nM] |
| --- | --- |
| [2H]C([2H])([2H])Oc1c(F)c(F)c(F)c2cc(N)cc(-c3ncc4c(N5CCOC[C@H]6[C@H](F)[C@H]65)nc(OC[C@@]56CCCN5CC(=C)C6)nc4c3F)c12 [Example 125, 6,7,8-trifluoro-4-(8-fluoro-4-((1S,7S,8S)-8-fluoro-5-oxa-2-azabicyclo[5.1.0]octan-2-yl)-2-(((S)-2-methylenetetrahydro-1H-pyrrolizin-7a(5H)-yl)methoxy)pyrido[4,3-d]pyrimidin-7-yl)-5-(methoxy-d3)naphthalen-2-amine] | < 50 |
| [2H]C([2H])(F)Oc1c(F)ccc2cccc(-c3ncc4c(N5CCOC[C@H]6[C@H](F)[C@H]65)nc(OC[C@]56C/C(=C/F)CN5CCC65CC5)nc4c3F)c12 [Example 386, (1S,7S,8S)-8-fluoro-2-(8-fluoro-7-(7-fluoro-8-(fluoromethoxy-d2)naphthalen-1-yl)-2-(((R,Z)-6′-(fluoromethylene)tetrahydrospiro[cyclopropane-1,1′-pyrrolizin]-7a′(5′H)-yl)methoxy)pyrido[4,3-d]pyrimidin-4-yl)-5-oxa-2-azabicyclo[5.1.0]octane] | < 50 |
| C#Cc1c(F)ccc2cc(N)cc(-c3ncc4c(N5CCOC[C@H]6[C@H](F)[C@H]65)nc(OC[C@@]56CCCN5C[C@H](C)C6)nc4c3F)c12 (single isomer, unassigned) [Example 208] | < 50 |
| [2H]C([2H])([2H])Oc1c(F)c(F)c(F)c2cc(N)cc(-c3ncc4c(N5CCOC[C@H]6[C@H](F)[C@H]65)nc(OC[C@@]56CCCN5CC(=C(F)F)C6)nc4c3F)c12 [Example 142, 4-(2-(((S)-2-(difluoromethylene)tetrahydro-1H-pyrrolizin-7a(5H)-yl)methoxy)-8-fluoro-4-((1S,7S,8S)-8-fluoro-5-oxa-2-azabicyclo[5.1.0]octan-2-yl)pyrido[4,3-d]pyrimidin-7-yl)-6,7,8-trifluoro-5-(methoxy-d3)naphthalen-2-amine] | < 50 |
| C#Cc1c(F)ccc2cccc(-c3ncc4c(N5CCOC[C@H]6[C@H](F)[C@H]65)nc(OC[C@]56CCCN5CC(=C(F)F)C6)nc4c3F)c12 [Example 104, (1S,7S,8S)-2-(2-(((R)-2-(difluoromethylene)tetrahydro-1H-pyrrolizin-7a(5H)-yl)methoxy)-7-(8-ethynyl-7-fluoronaphthalen-1-yl)-8-fluoropyrido[4,3-d]pyrimidin-4-yl)-8-fluoro-5-oxa-2-azabicyclo[5.1.0]octane] | < 50 |
| [2H]C([2H])(Oc1nc(N2CCOC[C@H]3[C@H](Cl)[C@H]32)c2cnc(-c3cc(N)cc4ccc(C)c(C#C)c34)c(F)c2n1)[C@@]12CCCN1[C@H](C)[C@H](F)C2 [Example 366, 4-(4-((1S,7S,8S)-8-chloro-5-oxa-2-azabicyclo[5.1.0]octan-2-yl)-8-fluoro-2-(((2R,3R,7aS)-2-fluoro-3-methyltetrahydro-1H-pyrrolizin-7a(5H)-yl)methoxy-d2)pyrido[4,3-d]pyrimidin-7-yl)-5-ethynyl-6-methylnaphthalen-2-amine] | < 50 |
| [2H]C([2H])([2H])Oc1c(F)c(F)c(F)c2cc(N)cc(-c3ncc4c(N5CCOC[C@H]6[C@H](F)[C@H]65)nc(OC[C@]56CC(=C)CN5CCC65CC5)nc4c3F)c12 [Example 120, 6,7,8-trifluoro-4-(8-fluoro-4-((1S,7S,8S)-8-fluoro-5-oxa-2-azabicyclo[5.1.0]octan-2-yl)-2-(((R)-6′-methylenetetrahydrospiro[cyclopropane-1,1′-pyrrolizin]-7a′(5′H)-yl)methoxy)pyrido[4,3-d]pyrimidin-7-yl)-5-(methoxy-d3)naphthalen-2-amine] | < 50 |
| [2H]C([2H])(Oc1nc(N2CCOC[C@H]3[C@H](F)[C@H]32)c2cnc(-c3cc(O)cc4cccc(C#C)c34)c(F)c2n1)[C@@]12CCCN1C[C@H](F)C2 [Example 300, 5-ethynyl-4-(8-fluoro-4-((1S,7S,8S)-8-fluoro-5-oxa-2-azabicyclo[5.1.0]octan-2-yl)-2-(((2R,7aS)-2-fluorotetrahydro-1H-pyrrolizin-7a(5H)-yl)methoxy-d2)pyrido[4,3-d]pyrimidin-7-yl)naphthalen-2-ol] | < 50 |
| C#Cc1c(F)ccc2cccc(-c3ncc4c(N5CCOC[C@H]6[C@H](F)[C@H]65)nc(OC[C@@]56CCCN5CC(=C(F)F)C6)nc4c3F)c12 [Example 102, (1S,7S,8S)-2-(2-(((S)-2-(Difluoromethylene)tetrahydro-1H-pyrrolizin-7a(5H)-yl)methoxy)-7-(8-ethynyl-7-fluoronaphthalen-1-yl)-8-fluoropyrido[4,3-d]pyrimidin-4-yl)-8-fluoro-5-oxa-2-azabicyclo[5.1.0]octane] | < 50 |

The next lines start with the values.

| IC50 [nM] | Structure (SMILES) |
| --- | --- |
| < 50 | [2H]C([2H])(Oc1nc(N2CCOC[C@H]3[C@H](F)[C@H]32)c2cnc(-c3cc(N)cc4c(F)cc(F)c(C#C)c34)c(F)c2n1)[C@@]12CCCN1C[C@H](F)C2 [Example 108, 5-ethynyl-6,8-difluoro-4-(8-fluoro-4-((1S,7S,8S)-8-fluoro-5-oxa-2-azabicyclo[5.1.0]octan-2-yl)-2-(((2R,7aS)-2-fluorotetrahydro-1H-pyrrolizin-7a(5H)-yl)methoxy-d2)pyrido[4,3-d]pyrimidin-7-yl)naphthalen-2-amine] |
| < 50 | [2H]C([2H])(Oc1nc(N2CCOC[C@H]3[C@H](F)[C@H]32)c2cnc(-c3cc(N)cc4ccc(F)c(C#C)c34)c(F)c2n1)[C@@]12CCCN1[C@H](C)[C@H](F)C2 [Example 333, 5-Ethynyl-6-fluoro-4-(8-fluoro-2-(((2R,3R,7aS)-2-fluoro-3-methyltetrahydro-1H-pyrrolizin-7a(5H)-yl)methoxy-d2)-4-((1S,7S,8S)-8-fluoro-5-oxa-2-azabicyclo[5.1.0]octan-2-yl)pyrido[4,3-d]pyrimidin-7-yl)naphthalen-2-amine] |
| < 50 | [2H]C([2H])(Oc1nc(N2CCOC[C@H]3[C@H](F)[C@H]32)c2cnc(-c3cc(N)cc4ccc(F)c(C#C)c34)c(F)c2n1)[C@@]12CCCN1C[C@H](Cl)C2 (single isomer, unassigned) [Example 238] |
| < 50 | [2H]C([2H])(F)Oc1c(F)ccc2cc(N)cc(-c3ncc4c(N5CCCC[C@H]6[C@H](F)[C@H]65)nc(OC([2H])([2H])[C@@]56CCCN5C[C@H](F)C6)nc4c3F)c12 [Example 100, 6-Fluoro-4-(8-fluoro-4-((1S,7R,8S)-8-fluoro-2-azabicyclo[5.1.0]octan-2-yl)-2-(((2R,7aS)-2-fluorotetrahydro-1H-pyrrolizin-7a(5H)-yl)methoxy-d2)pyrido[4,3-d]pyrimidin-7-yl)-5-(fluoromethoxy-d2)naphthalen-2-amine] |
| < 50 | [2H]c1cc(F)c(C#C)c2c(-c3ncc4c(N5CCOC[C@H]6[C@H](F)[C@H]65)nc(OC([2H])([2H])[C@@]56CCCN5C[C@H](F)C6)nc4c3F)cc(N)cc12 [Example 264, 5-ethynyl-6-fluoro-4-(8-fluoro-4-((1S,7S,8S)-8-fluoro-5-oxa-2-azabicyclo[5.1.0]octan-2-yl)-2-(((2R,7aS)-2-fluorotetrahydro-1H-pyrrolizin-7a(5H)-yl)methoxy-d2)pyrido[4,3-d]pyrimidin-7-yl)naphthalen-8-d-2-amine] |
| < 50 | [2H]C([2H])(Oc1nc(N2CCCC[C@H]3[C@H](F)[C@H]32)c2cnc(-c3cncc4ccc(F)c(C#C)c34)c(F)c2n1)[C@@]12CCCN1C[C@H](F)C2 [Example 97, 7-(5-Ethynyl-6-fluoroisoquinolin-4-yl)-8-fluoro-4-((1S,7R,8S)-8-fluoro-2-azabicyclo[5.1.0]octan-2-yl)-2-(((2R,7aS)-2-fluorotetrahydro-1H-pyrrolizin-7a(5H)-yl)methoxy-d2)pyrido[4,3-d]pyrimidine] |

Same assay, conditions: Homo sapiens, NCI-H441, cellular pERK HTRF, NCI-H441 (KRAS G12V) cells

| IC50 [nM] | Structure (SMILES) |
| --- | --- |
| < 50 | C#Cc1c(F)ccc2cc(N)cc(-c3ncc4c(N5CCOC[C@H]6[C@H](F)[C@H]65)nc(OCC56CCN5CC(F)(F)C6)nc4c3F)c12 (stereo partly drawn) [Example 476, 4-(2-((3,3-difluoro-1-azabicyclo[3.2.0]heptan-5-yl)methoxy)-8-fluoro-4-((1S,7S,8S)-8-fluoro-5-oxa-2-azabicyclo[5.1.0]octan-2-yl)pyrido[4,3-d]pyrimidin-7-yl)-5-ethynyl-6-fluoronaphthalen-2-amine] |

Same assay, conditions: Homo sapiens, NCI-H441, pERK HTRF, NCI-H441 cells (KRAS G12V)

| IC50 [nM] | Structure (SMILES) |
| --- | --- |
| 500 to 10000 | [2H]C([2H])(Oc1nc(N2CCCCC[C@@H]3C[C@@H]32)c2cnc(-c3cc(N)cc4cc(F)c(F)c(C#C)c34)c(F)c2n1)[C@@]12CCCN1C[C@H](F)C2 [Example 55, 4-(4-((1S,8R)-2-azabicyclo[6.1.0]nonan-2-yl)-8-fluoro-2-(((2R,7aS)-2-fluorotetrahydro-1H-pyrrolizin-7a(5H)-yl)methoxy-d2)pyrido[4,3-d]pyrimidin-7-yl)-5-ethynyl-6,7-difluoronaphthalen-2-amine] |
| < 50 | [2H]C([2H])(Oc1nc(N2CCCC[C@H]3[C@H](F)[C@H]32)c2cnc(-c3cccc4cc(F)c(F)c(C#C)c34)c(F)c2n1)[C@@]12CCCN1C[C@H](F)C2 [Example 79, 7-(8-Ethynyl-6,7-difluoronaphthalen-1-yl)-8-fluoro-4-((1S,7R,8S)-8-fluoro-2-azabicyclo[5.1.0]octan-2-yl)-2-(((2R,7aS)-2-fluorotetrahydro-1H-pyrrolizin-7a(5H)-yl)methoxy-d2)pyrido[4,3-d]pyrimidine] |

Same assay, conditions: cellular pERK (Thr202/Tyr204) HTRF, NCI-H441 cells

| IC50 [nM] | Structure (SMILES) |
| --- | --- |
| 500 to 10000 | [2H]C([2H])(Oc1nc(N2CCOC[C@@H]3[C@@H](Cl)[C@@H]32)c2cc(C(F)(F)F)c(-c3ccc(F)c4sc(N)c(C#N)c34)c(F)c2n1)[C@@]12CCCN1C[C@H](F)C2 (atropisomer, axis not shown; (aS)) [Example 421, 2-amino-4-((R)-4-((1R,7R,8R)-8-chloro-5-oxa-2-azabicyclo[5.1.0]octan-2-yl)-8-fluoro-2-(((2R,7aS)-2-fluorotetrahydro-1H-pyrrolizin-7a(5H)-yl)methoxy-d2)-6-(trifluoromethyl)quinazolin-7-yl)-7-fluorobenzo[b]thiophene-3-carbonitrile] |
